{
  "source": "patent US8604212B2",
  "about": "“Anti-shock agent comprising diaminotrifluoromethylpyridine derivative” (Ishihara Sangyo Kaisha, Ltd., priority 2009, dated 2013)",
  "tested_on": "mouse models with septic shock, the onset of which was peritonitis triggered by the cecal puncture",
  "assay": "Therapeutic effect on mouse models with septic shock, the onset of which was peritonitis triggered by the cecal puncture (viability test)",
  "format": "in vivo",
  "conditions": "for surviving rate: female BALB/c mice",
  "from_the_text": "Therapeutic effects of N-(2-ethylsulfonylamino-5-trifluoromethyl-3-pyridyl)cylohexanecarboxamide sodium salt monohydrate (hereinafter referred to as compound 1) on mouse models with septic shock, the onset of which was peritonitis triggered by the cecal puncture, was examined.\nThe compound 1 was used as a drug formulation. The formulation composition (content per one vial) was as follows.\nAge: 7 weeks old when purchased and 8 weeks old when tested\nThe mice were pre-bred for about a week after purchase and then subjected to a test at about 8 weeks old. Breeding in the entire breeding period was carried out in an isolator placed in a large animal room. Ten mice in each group were accommodated in a polycarbonate cage throughout the test period, and they were freely fed on commercially available complete feed pellet (MF, manufactured by O. B. S.) and tap water subjected to activated carbon filtration (with use of a feed water bottle) throughout the breeding period. From the mice, mice which were healthily grown during the pre-breeding period were selected. Mice were randomly selected from the above selected mice and delivered to the respective groups one by one in the order of the animal number. The animal number was put in the order of put into a cage after the grouping.\nPreparation of the drug was carried out immediately before the induction operation, and administration was carried out by using the prepared liquid for administration. Japanese Pharmacopoeia 5% glucose was injected to a formulated product containing 100 mg of the compound 1 to completely dissolve the compound 1, and a liquid for administration at the maximum dose was prepared by diluting with Japanese Pharmacopoeia 5% glucose, and a liquid for administration at a medium dose and a liquid for administration at a low dose were prepared by stepwise dilution of the liquid for administration at the maximum dose with Japanese Pharmacopoeia 5% glucose. For the non-treated group, Japanese Pharmacopoeia 5% glucose as a medium alone was prepared. Immediately after the induction, 4 hours later, 8 hours later and 12 hours later, the liquid was repeatedly administered subcutaneously to the dorsal neck to maintain the blood concentration. The liquid was administered in a volume of 10 ml/kg for each group.\nMice were anesthetized with gas-oxygen-fluothane, and the corpus 8 mm from the cecal apex was ligated through an abdominal incision, one spot in the apex was punctured and transfixed with a 22 G needle, and after leakage of cecal contents was confirmed, the cecum was completely replaced in the abdomen and the abdomen was closed.\nViability test was carried out for 3 days from immediately after the induction, and the results were summarized every 24 hours.\nEmploying the non-treated group as a control, comparison among groups of a group given with 0.1 mg/kg of the compound 1, a group given with 1 mg/kg of the compound 1 and a group given with 10 mg/kg of the compound 1 was carried out.\nViability test results: animals which died in 0 to 24 hours were scored 1, animals which died in 24 to 48 hours were scored 2, animals which died in 48 to 72 hours were scored 3, and animals which survived 72 hours or more were scored 4, and the obtained data were used.\nComparison among groups was carried out by Shirley-Williams' multiple comparison test.",
  "data": [
    {"molecule": "CCS(=O)(=O)Nc1ncc(C(F)(F)F)cc1NC(=O)C1CCCCC1.O.[Na]", "note": "[Compound 1, N-(2-ethylsulfonylamino-5-trifluoromethyl-3-pyridyl)cylohexanecarboxamide sodium salt monohydrate]", "values": [
      {"measurement": "surviving rate", "setting": "0.1 mg/kg x 4 times subcutaneous, 24 hr after induction of septic shock model", "value": 20, "unit": "%"},
      {"measurement": "surviving rate", "setting": "0.1 mg/kg x 4 times subcutaneous, 48 hr after induction of septic shock model", "value": 0, "unit": "%"},
      {"measurement": "surviving rate", "setting": "0.1 mg/kg x 4 times subcutaneous, 72 hr after induction of septic shock model", "value": 0, "unit": "%"},
      {"measurement": "surviving rate", "setting": "1 mg/kg x 4 times subcutaneous, 24 hr after induction of septic shock model", "value": 40, "unit": "%"},
      {"measurement": "surviving rate", "setting": "1 mg/kg x 4 times subcutaneous, 48 hr after induction of septic shock model", "value": 10, "unit": "%"},
      {"measurement": "surviving rate", "setting": "1 mg/kg x 4 times subcutaneous, 72 hr after induction of septic shock model", "value": 10, "unit": "%"},
      {"measurement": "surviving rate", "setting": "10 mg/kg x 4 times subcutaneous, 24 hr after induction of septic shock model", "value": 90, "unit": "%"},
      {"measurement": "surviving rate", "setting": "10 mg/kg x 4 times subcutaneous, 48 hr after induction of septic shock model", "value": 50, "unit": "%"},
      {"measurement": "surviving rate", "setting": "10 mg/kg x 4 times subcutaneous, 72 hr after induction of septic shock model", "value": 50, "unit": "%"},
      {"measurement": "improvement in the surviving rate versus non-treated group (Shirley-Williams' multiple comparison test)", "setting": "administration of 10 mg/kg, P<0.001", "value": "improvement in the surviving rate with statical significance"}
    ]}
  ]
}
